Results reported in patent US20250332178A1, “METHODS OF TREATING MYCOBACTERIAL INFECTIONS USING TETRACYCLINE COMPOUNDS” (priority 2018, published 2025).
≈ marks a conversion by molar mass, not a printed value. Read-outs that look alike come from different tables or passages of the source.

Columns and labels:
[1] = test system: rapid-growing mycobacteria (RGM) isolates; test: MIC (CLSI broth dilution), all RGM isolates; format: cell-based, nontuberculous mycobacteria; settings: RGM clinical isolates, all species
Mycobacterium abscessus = test: MIC by broth microdilution in CAMHB, clinical isolates; format: cell-based; settings: Mycobacteroides abscessus; for MIC: read-out: MIC
Procedure: (§1) A total of 24 clinical isolates of Mycobacterium abscessus, 22 clinical isolates of Mycobacterium chelonae and 20 clinical isolates of Mycobacterium fortuitum were tested in the study. The study also used the antibiotics tigecycline, doxycycline and amikacin for comparison purposes. […] Amikacin was dissolved in DMSO prior to freezing at −20° C. For susceptibility testing, stock solutions of antibiotic compounds were serially diluted in 50 μL of cation adjusted Mueller-Hinton broth (CAMHB) in polystryrene 96-well round-bottom microtiter plates. To each well, 50 μL of the appropriate mycobacterial cell suspension was added to yield a final concentration of about 1×10^5 CFU/mL. The inoculum used for each isolate was measured by titration in saline with Tween 80 and plating on MH agar. The Mycobacterium abscessus and Mycobacterium fortuitum titer plates were incubated at 37° C. in ambient air for 3-4 days and 5-7 days, respectively. The Mycobacterium chelonae titer plates were incubated at 30° C. in ambient air for 3-5 days. Each isolate was tested at least in duplicate. The MIC was defined as the lowest concentration of antimicrobial agent yielding no visible turbidity.

Mycobacterium fortuitum = test: as above; format: cell-based; settings: Mycolicibacterium fortuitum; for MIC: read-out: MIC
Procedure: as §1

Mycobacterium chelonae = test: as above; format: cell-based; settings: 22 clinical isolates; read-out: MIC50
Procedure: as §1

**Q.** Which MIC50 ([1]; read-out: MIC50) does the source give for `CN(C)c1cc(CNCC(C)(C)C)c(O)c2c1C[C@H]1C[C@H]3C(N(C)C)C(O)=C(C(N)=O)C(=O)[C@@]3(O)C(O)=C1C2=O` (stereo partly drawn) [Omadacycline, (4aS,5aR,12aS)-4,7-bis(dimethylamino)-3,10,12,12a-tetrahydroxy-9-((neopentylamino)methyl)-1,11-dioxo-1,4,4a,5,5a,6,11,12a-octahydrotetracene-2-carboxamide] here?
**A.** 0.25 µg/mL (≈ 0.449 µM)

**Q.** What about the MIC90 ([1]; read-out: MIC90) of the same molecule?
**A.** 0.5 µg/mL (≈ 0.898 µM)

**Q.** And the MIC (Mycobacterium abscessus; isolate No. 1, BB2)?
**A.** 1 µg/mL (≈ 1.8 µM)

**Q.** And the MIC (Mycobacterium abscessus; isolate No. 2, BB4)?
**A.** 4 µg/mL (≈ 7.19 µM)

**Q.** And the MIC (Mycobacterium abscessus; isolate No. 3, 5922)?
**A.** 0.125 µg/mL (≈ 0.225 µM)

**Q.** And the MIC (Mycobacterium abscessus; isolate No. 4, BB3)?
**A.** 0.06 µg/mL (≈ 0.108 µM)

**Q.** What about the MIC (Mycobacterium abscessus; isolate No. 5, BB6) of the same molecule?
**A.** 0.06 µg/mL (≈ 0.108 µM)

**Q.** And the MIC (Mycobacterium abscessus; isolate No. 6, 5908)?
**A.** 1 µg/mL (≈ 1.8 µM)

**Q.** What about the MIC (Mycobacterium abscessus; isolate No. 7, BB7) of the same molecule?
**A.** 2 µg/mL (≈ 3.59 µM)

**Q.** And the MIC (Mycobacterium abscessus; isolate No. 8, 6031)?
**A.** 0.25 µg/mL (≈ 0.449 µM)

**Q.** What about the MIC (Mycobacterium abscessus; isolate No. 9, 5785) of the same molecule?
**A.** 0.25 µg/mL (≈ 0.449 µM)

**Q.** And the MIC (Mycobacterium abscessus; isolate No. 10, BB8)?
**A.** 1 µg/mL (≈ 1.8 µM)

**Q.** And the MIC (Mycobacterium abscessus; isolate No. 11, 6111)?
**A.** 1 µg/mL (≈ 1.8 µM)

**Q.** What about the MIC (Mycobacterium abscessus; isolate No. 12, 6005) of the same molecule?
**A.** 1 µg/mL (≈ 1.8 µM)

**Q.** What about the MIC (Mycobacterium abscessus; isolate No. 13, 5605) of the same molecule?
**A.** 1 µg/mL (≈ 1.8 µM)

**Q.** What about the MIC (Mycobacterium abscessus; isolate No. 14, 5931) of the same molecule?
**A.** 1 µg/mL (≈ 1.8 µM)

**Q.** And the MIC (Mycobacterium abscessus; isolate No. 15, BB1)?
**A.** 2 µg/mL (≈ 3.59 µM)

**Q.** And the MIC (Mycobacterium abscessus; isolate No. 16, BB5)?
**A.** 2 µg/mL (≈ 3.59 µM)

**Q.** And the MIC (Mycobacterium abscessus; isolate No. 17, 5812)?
**A.** 2 µg/mL (≈ 3.59 µM)

**Q.** What about the MIC (Mycobacterium abscessus; isolate No. 18, 5901) of the same molecule?
**A.** 1 µg/mL (≈ 1.8 µM)

**Q.** What about the MIC (Mycobacterium abscessus; isolate No. 19, 5960) of the same molecule?
**A.** 8 µg/mL (≈ 14.4 µM)

**Q.** What about the MIC (Mycobacterium abscessus; isolate No. 20, 6142) of the same molecule?
**A.** 1 µg/mL (≈ 1.8 µM)

**Q.** And the MIC (Mycobacterium abscessus; isolate No. 21, 5922)?
**A.** 0.5 µg/mL (≈ 0.898 µM)

**Q.** And the MIC (Mycobacterium abscessus; isolate No. 22, LT 949)?
**A.** 1 µg/mL (≈ 1.8 µM)

**Q.** And the MIC (Mycobacterium abscessus; isolate No. 23, 6025)?
**A.** 1 µg/mL (≈ 1.8 µM)

**Q.** And the MIC (Mycobacterium abscessus; isolate No. 24, 6153)?
**A.** 2 µg/mL (≈ 3.59 µM)

**Q.** And the MIC50 (Mycobacterium abscessus; 24 clinical isolates (tigecycline: subset N=14), read-out: MIC50)?
**A.** 1 µg/mL (≈ 1.8 µM)

**Q.** And the MIC90 (Mycobacterium abscessus; 24 clinical isolates (tigecycline: subset N=14), read-out: MIC90)?
**A.** 2 µg/mL (≈ 3.59 µM)

**Q.** And the MIC (Mycobacterium fortuitum; isolate No. 1, 3349)?
**A.** 0.25 µg/mL (≈ 0.449 µM)

**Q.** What about the MIC (Mycobacterium fortuitum; isolate No. 2, 3499) of the same molecule?
**A.** 0.03 µg/mL (≈ 0.0539 µM)

**Q.** And the MIC (Mycobacterium fortuitum; isolate No. 3, 2797)?
**A.** 0.125 µg/mL (≈ 0.225 µM)

**Q.** What about the MIC (Mycobacterium fortuitum; isolate No. 4, 32) of the same molecule?
**A.** 0.25 µg/mL (≈ 0.449 µM)

**Q.** And the MIC (Mycobacterium fortuitum; isolate No. 5, 33)?
**A.** 0.125 µg/mL (≈ 0.225 µM)

**Q.** What about the MIC (Mycobacterium fortuitum; isolate No. 6, 3489) of the same molecule?
**A.** 0.125 µg/mL (≈ 0.225 µM)

**Q.** What about the MIC (Mycobacterium fortuitum; isolate No. 7, 3491) of the same molecule?
**A.** 0.125 µg/mL (≈ 0.225 µM)

**Q.** And the MIC (Mycobacterium fortuitum; isolate No. 8, 54)?
**A.** 0.06 µg/mL (≈ 0.108 µM)

**Q.** And the MIC (Mycobacterium fortuitum; isolate No. 9, 38)?
**A.** 0.125 µg/mL (≈ 0.225 µM)

**Q.** What about the MIC (Mycobacterium fortuitum; isolate No. 10, 36) of the same molecule?
**A.** 0.125 µg/mL (≈ 0.225 µM)

**Q.** And the MIC (Mycobacterium fortuitum; isolate No. 11, 3480)?
**A.** 0.25 µg/mL (≈ 0.449 µM)

**Q.** What about the MIC (Mycobacterium fortuitum; isolate No. 12, 3126) of the same molecule?
**A.** 0.125 µg/mL (≈ 0.225 µM)

**Q.** And the MIC (Mycobacterium fortuitum; isolate No. 13, 3579)?
**A.** 0.25 µg/mL (≈ 0.449 µM)

**Q.** What about the MIC (Mycobacterium fortuitum; isolate No. 14, 7484) of the same molecule?
**A.** 0.5 µg/mL (≈ 0.898 µM)

**Q.** And the MIC (Mycobacterium fortuitum; isolate No. 15, 3488)?
**A.** 0.5 µg/mL (≈ 0.898 µM)

**Q.** And the MIC (Mycobacterium fortuitum; isolate No. 16, 3276)?
**A.** 0.25 µg/mL (≈ 0.449 µM)

**Q.** What about the MIC (Mycobacterium fortuitum; isolate No. 17, 3442) of the same molecule?
**A.** 1 µg/mL (≈ 1.8 µM)

**Q.** And the MIC (Mycobacterium fortuitum; isolate No. 18, 3316)?
**A.** 0.125 µg/mL (≈ 0.225 µM)

**Q.** What about the MIC (Mycobacterium fortuitum; isolate No. 19, 3490) of the same molecule?
**A.** 0.25 µg/mL (≈ 0.449 µM)

**Q.** And the MIC (Mycobacterium fortuitum; isolate No. 20, 2491)?
**A.** 1 µg/mL (≈ 1.8 µM)

**Q.** And the MIC50 (Mycobacterium fortuitum; 20 clinical isolates, read-out: MIC50)?
**A.** 0.125 µg/mL (≈ 0.225 µM)

**Q.** What about the MIC90 (Mycobacterium fortuitum; 20 clinical isolates, read-out: MIC90) of the same molecule?
**A.** 0.5 µg/mL (≈ 0.898 µM)

**Q.** And the MIC50 (Mycobacterium chelonae)?
**A.** 0.125 µg/mL (≈ 0.225 µM)
